From patent publication US8841425B2, “Cytotoxic agents comprising new maytansinoids” (ImmunoGen, Inc., priority 2003, dated 2014)
Entries after “also recorded” stand apart in the source; their conditions may differ.

Assays:
[1] = test system: human melanoma cell line A-375; assay: In vitro cytotoxicity, clonogenic assay, A-375 cells; assay type: cell-based; settings: for IC50: free maytansinoid, 72 hours exposure, clonogenic assay, read-out: IC50 towards A-375 cells; for fold less sensitive, antigen negative A-375 cells versus COLO 205 cells: antibody-maytansinoid conjugate
Method: (§1) The KB (ATCC CCl-17) cell line is of human epithelial origin. The SK-BR-3 (ATCC HTB-30) cell line was established from a human breast adenocarcinoma. The human colon tumor cell lines COLO 205 (ATCC CCL-222) and HT-29 (ATCC HTB 38), the human melanoma cell line A-375 (ATCC CRL 1619), the human Burkitts lymphoma cell line Ramos (ATCC CRL-1596) and the human myeloid leukemia cell line HL-60 (ATCC CCL-240) were all obtained from ATCC, Maryland. Cell lines were grown in Dulbecco's modified Eagles Medium (DMEM, Biowhittaker, Walkersville, Md.) with L-glutamine supplemented with 10% fetal bovine serum (Hyclone, Logan, Utah) and 50 μg/mL gentamycin sulfate (Life Technologies, Rockville, Md.). Cells were maintained at 36-37.5° C. in a humidified atmosphere that contained 6% CO2.
(§2) The cytotoxicity study performed used a clonogenic assay. The test cell lines were plated into 6-well culture dishes at a constant number of 1000 cells per well. Cells were incubated with varying concentrations (0 to 3 nM) of the various maytansinoids (free or conjugated to antibodies) for 72 hours. The medium was then aspirated from the plates and replaced with fresh medium. Cultures were allowed to grow, and form colonies, for a total of 7-10 days after plating. The cultures were then fixed and stained with 0.2% crystal violet in 10% formalin/PBS and colonies were counted. Plating efficiency of non-treated cells (medium alone) was determined by dividing the number of colonies counted by the number of cells plated. Surviving fraction of cells exposed to the drugs was determined by dividing the number of colonies in wells that were exposed to the drug by the number of colonies in the control wells.

SK-BR-3 cells = assay: In vitro cytotoxicity, clonogenic assay, SK-BR-3 cells; assay type: cell-based, human; settings: free maytansinoid, 72 hours exposure, read-out: IC50 towards SK-Br-3 cells
Method: as §1
as §2, with “Cells were incubated with varying concentrations (0 to 3 nM) of the various maytansinoids (free or conjugated to antibodies) for 72 hours. The medium was then aspirated from the plates and replaced with fresh medium. Cultures were allowed to grow, and form colonies, for a total of 7-10 days after plating.” left out

[2] = test system: human acute lymphoblastic leukemia line CEM; settings: in vitro; cited from earlier work
[3] = test system: Lewis lung carcinoma system; settings: in vivo; cited from earlier work
L1210 cells = L1210 cells treated in vivo; cited from earlier work
[4] = test system: human B-16 melanocarcinoma system; settings: in vivo; cited from earlier work
[5] = test system: L1210 mouse leukemia system; settings: in vivo; cited from earlier work
[6] = test system: human nasopharyngeal carcinoma cells; settings: cited from earlier work
[7] = test system: HT-29 human colon tumor xenografts; assay: In vivo efficacy against HT-29 xenografts; set-up: species or system mouse; settings: SCID mice, maytansinoid dose of 75 μg/kg, qd×5, intravenously
Method: (§3) Five-week-old female SCID mice (20 animals) were inoculated subcutaneously in the right flank with HT-29 human colon carcinoma cells (1.5×10^6 cells/mouse) in 0.1 mL of serum-free medium. The tumors were grown for 11 days to an average size of 100 mm^3. The animals were then randomly divided into four groups (5 animals per group). The first group received huC242-DM1 conjugate (DM1 dose of 75 μg/kg, qd×5) administered intravenously. The second group received huC242-DM3 conjugate (DM3 dose of 75 μg/kg, qd×5) administered intravenously. The third group received huC242-DM4 conjugate (DM4 dose of 75 μg/kg, qd×5), while a fourth group of animals served as controls and received PBS using the same treatment schedule as in groups 1-3.
The sizes of the tumors were measured twice weekly and the tumor volumes were calculated with the formula: tumor volume=½(length×width×height). The weight of the animals was also measured twice per week. The tumors in the control group of mice grew to a size of nearly 1000 mm^3 in 35 days.

[8] = test system: antigen positive COLO 205 cells; assay: In vitro cytotoxicity of antibody-maytansinoid conjugates, clonogenic assay, COLO 205 cells; assay type: cell-based, human; settings: antibody-maytansinoid conjugate; read-out: IC50 towards antigen positive COLO 205 cells
Method: Conjugates of cell-binding agents with maytansinoid drugs of the invention can be evaluated for their ability to suppress proliferation of various unwanted cell lines in vitro (FIG. 6). For example, cell lines such as the human colon carcinoma line COLO 205, the human melanoma cell line A-375, the human myeloid leukemia cell line HL60 can be used for the assessment of cytotoxicity of these conjugates. Cells to be evaluated can be exposed to the compounds for 24 hours and the surviving fractions of cells measured in direct assays by known methods. IC50 values can then be calculated from the results of the assays.
The KB (ATCC CCl-17) cell line is of human epithelial origin. The SK-BR-3 (ATCC HTB-30) cell line was established from a human breast adenocarcinoma. […]
The cytotoxicity study performed used a clonogenic assay. […] The cultures were then fixed and stained with 0.2% crystal violet in 10% formalin/PBS and colonies were counted. Plating efficiency of non-treated cells (medium alone) was determined by dividing the number of colonies counted by the number of cells plated. Surviving fraction of cells exposed to the drugs was determined by dividing the number of colonies in wells that were exposed to the drug by the number of colonies in the control wells.

[9] = test system: COLO 205 human colon tumor xenografts; assay: In vivo efficacy against COLO 205 xenografts; set-up: species or system mouse; settings: SCID mice, maytansinoid dose of 75 μg/kg, qd×5, intravenously
Method: as §3, with “COLO 205” for “HT-29”
The sizes of the tumors were measured twice weekly and the tumor volumes were calculated with the formula: tumor volume=½(length×width×height). The weight of the animals was also measured twice per week. The tumors in the control group of mice grew to a size of nearly 900 mm^3 in 24 days.

[10] = test system: human HL-60 tumor xenografts; assay: In vivo efficacy of huMy9-6-DM4 against HL-60 xenografts in SCID mice (FIG. 11); set-up: species or system mouse
Method: The efficacy of huMy9-6-DM4 in vivo was determined in SCID mice bearing human HL-60 tumor xenografts. HL-60 cells were injected subcutaneously and tumors were allowed to grow to an average size of 100 mm^3. Dosage is expressed as μg DM4 in the conjugate, which corresponds to an antibody dose of approximately 67 μg antibody per μg of DM4. […] The efficacy of huMy9-6-DM4 was also compared with that of huMy9-6-DM1. […] HuMy9-6-DM4 maintained the animals in complete remission (CR) for nearly sixty days, whereas animals treated with huMy9-6-DM1 relapsed after about 20 days in CR.

With `COc1cc2cc(c1Cl)N(C)C(=O)C[C@H](OC(=O)[C@H](C)N(C)C(=O)CCC(C)SSC)[C@]1(C)O[C@H]1[C@H](C)[C@@H]1C[C@@](O)(NC(=O)O1)[C@H](OC)/C=C/C=C(\C)C2` (some centres unmarked) [4c, N^2′-deacetyl-N^2′-(4-methyldithio-1-oxopentyl)maytansine] the IC50 [1] was 0.015 nM and the IC50 (SK-BR-3 cells) was 0.007 nM.

With `COc1cc2cc(c1Cl)N(C)C(=O)CC(OC(=O)[C@@H](C)N(C)C(=O)CCC(C)(C)SSC)C1(C)OC1C(C)C1CC(O)(NC(=O)O1)C(OC)/C=C/C=C(\C)C2` (some centres unmarked) [4e, N^2′-deacetyl-N^2′-(4-methyl-4-methyldithio-1-oxopentyl)maytansine] the IC50 [1] was 0.032 nM and the IC50 (SK-BR-3 cells) was 0.009 nM.

In the case of `COc1cc2cc(c1Cl)N(C)C(=O)C[C@H](OC(=O)[C@H](C)N(C)C(C)=O)[C@]1(C)O[C@H]1[C@H](C)[C@@H]1C[C@@](O)(NC(=O)O1)[C@H](OC)/C=C/C=C(\C)C2` [maytansine, Maytansine], the “inhibitory concentration, as low as” value [2] is given as ≥ 10^−7 μg/ml, the inhibitory activity [3] is given as “significant inhibitory activity” and the “cells accumulating in mitosis” value (L1210 cells) is given as 67%. For the same molecule, the inhibitory activity [4] was “significant inhibitory activity”, the inhibitory activity [5] was “significant inhibitory activity” and the “inhibition of in vitro growth” value [6] was “active inhibitor”.

B1: huC242-DM3: huC242 antibody linked to DM3 (4a), on the average 3.2-3.5 DM3 molecules per antibody molecule (conjugate, chains of the INN, looked up)
VH: QVQLVQSGAEVKKPGETVKISCKASDYTFTYYGMNWVKQAPGQGLKWMGWIDTTTGEPTYAQKFQGRIAFSLETSASTAYLQIKSLKSEDTATYFCARRGPYNWYFDVWGQGTTVTVSS
VL: DIVMTQSPLSVPVTPGEPVSISCRSSKSLLHSNGNTYLYWFLQRPGQSPQLLIYRMSNLVSGVPDRFSGSGSGTAFTLRISRVEAEDVGVYYCLQHLEYPFTFGPGTKLELK
modifications: DM3 maytansinoid conjugate
notes: huC242 antibody linked to DM3 (4a), on the average 3.2-3.5 DM3 molecules per antibody molecule
For B1, the tumor growth delay [7] was 28 days, the IC50 [8] was 0.013 nM and the “complete tumor regression lasting” value [9] was 45 days. For the same molecule, the “fold less sensitive, antigen negative A-375 cells versus COLO 205 cells” value [1] was “about 500 fold”.

B2: huC242-DM4: huC242 antibody linked to DM4 (4b), on the average 3.2-3.5 DM4 molecules per antibody molecule (conjugate, chains of the INN, looked up)
VH: B1 VH
VL: B1 VL
modifications: DM4 maytansinoid conjugate
notes: huC242 antibody linked to DM4 (4b), on the average 3.2-3.5 DM4 molecules per antibody molecule
For B2, the tumor growth delay [7] was 36 days, the IC50 [8] was 0.011 nM and the “tumor response (regression, cures)” value [9] was “cures of all the treated mice; also recorded: cures of all the treated animals”. For the same molecule, the “fold less sensitive, antigen negative A-375 cells versus COLO 205 cells” value [1] was “about 500 fold”.

B3: huMy9-6-DM1: huMy9-6 conjugate of a previously described maytansinoid (DM1) (conjugate, chains of the INN, looked up)
VH: QVQLVESGGGVVQPGRSLRLSCAASGFTFSSFGMHWVRQAPGKGLEWVAYISSGSFTIYYADSVKGRFTISRDNSKNTLYLQMNSLRAEDTAVYYCARMRKGYAMDYWGQGTLVTVSS
VL: DVVMTQSPLSLPVTLGQPASISCRSSQIIIHSDGNTYLEWFQQRPGQSPRRLIYKVSNRFSGVPDRFSGSGSGTDFTLKISRVEAEDVGVYYCFQGSHVPHTFGQGTKVEIK
modifications: DM1 maytansinoid conjugate
For B3, the “time in complete remission (CR)” value ([10]; SCID mice, i.v. once a day for 5 days) was “about 20 days” and the tumor growth delay ([10]; subcutaneous HL-60 xenograft, equivalent dose, FIG. 11) was “about 48 days”.
